Non-standard residues stand in square brackets, D forms with d. Residues, ends and D or L forms follow the SMILES beside them. *: point of attachment. Acetyl(thymin-1-yl) = Cc1cn(CC(=O)*)c(=O)[nH]c1=O; Sar = CNCC(=O)O
What was measured:
Aβ42 [1] = target: T1, Aβ42 (Homo sapiens, UniProt P05067); test: ThT fluorescence inhibition assay of Aβ42 fibrillization; format: biochemical; settings: for growth phase of Aβ42 fibrillization, time-dependent ThT assay / inhibition efficiency, time-dependent ThT assay: 1:2, 37°C, n = 3; for growth phase of Aβ42 fibrillization, time-dependent ThT assay: normalized fluorescence at 485 nm
T1 construct: Aβ42 peptide (0.25 mg) (Calbiochem, Merck) was dissolved in hexafluoro-2-propanol; purchased Calbiochem, Merck
Protocol: (§1) ThT assay has been widely used to monitor the transformation of Aβ42 monomers to fibrillar aggregates. We employed ThT assay to evaluate the ability of our peptidomimetic candidates to either prevent fibril assembly (inhibition) or to break down preformed fibrils of Aβ42 (dissolution). For the inhibition assay all the peptidomimetics (P2, P3, P4 and P5) along with control peptide P1 were added at 0 h of the experiment, whereas for the aggregates reversal (dissolution) assay they were added to Aβ42 fibrillar aggregates grown for 2 days. Once they had been incubated together, Aβ42/inhibitors were analyzed using ThT by measuring the fluorescence changes. First, we performed concentration-dependent experiments where different ratios of P1, P2, P3, P4 and P5 were incubated with fixed concentrations of Aβ42 (20 μM) and its aggregates to study their effect on both inhibition and reversal assay, respectively. Experiments were performed at stoichiometric ratios (Aβ42/inhibitor) of 1:0.2, 1:1, and 1:2 with the fixed concentration of Aβ42 of 20 μM. […] However, the efficiencies of P4 and P5 were only marginally better in inhibition assay compared to reversal assay with a difference of about 15%.
(§2) Fluorescence spectral measurements were carried out using Perkin Elmer Model LS 55 fluorescence spectrophotometer. […] A ThT concentration of 5–10 µM was used for amyloid fibrillization and dissolution assay based on the Aβ42 fibrillar concentration.
(§3) Prior to the experiment, P1, P2, P3, P4 and P5 were dissolved in HFIP and were evaporated under a stream of dry nitrogen. The dried samples were re-suspended in 10 mM PBS buffer at pH 7.4. An aliquot of Aβ42 peptide was then added to the solution with or without one of the inhibitor P1, P2, P3, P4 and P5. The mixtures were vortexed for approximately 30 s and then incubated at 37°C for 2–3 days without shaking. The final concentration of Aβ42 in the mixture was 20 μΜ. For a dissolution experiment, Aβ42 was incubated alone for 2 days to allow fibrils to form. An aliquot of the formed fibrils in 10 mM PBS buffer was then added to the inhibitor peptidomimetics. The amount of fibrils remaining intact was assayed using that fluorescence, CD measurements and transmission electron microscopy as described below.

[2] = target: T2, Aβ42 fibrillar aggregates (Homo sapiens, UniProt P05067); test: ThT fluorescence reversal (dissolution) assay of preformed Aβ42 fibrillar aggregates; format: biochemical; settings: n = 3; for dissolution efficiency, fibril reversal assay (ThT): Aβ42 fibrillar aggregates grown for 2 days, 20 μM, 1:2 stoichiometry, day 6, 37°C; for dissolution efficiency, time-dependent reversal ThT assay: Aβ42 aggregates 20 μM, 1:2, 37°C
T2 construct: Aβ42 peptide (0.25 mg) (Calbiochem, Merck) was dissolved in hexafluoro-2-propanol; purchased Calbiochem, Merck
Protocol: as §1
Aβ42 peptide (0.25 mg) (Calbiochem, Merck) was dissolved in hexafluoro-2-propanol (HFIP, 0.2 mL) and incubated at room temperature for 1 h. HFIP was then removed by the flow of nitrogen and further dried under vacuum. HFIP-treated Aβ42 was then dissolved in 10 mM PBS buffer to a concentration of 200 μM at pH 7.4. The solution was incubated at 37°C for 48 h with constant shaking for fibril formation. The formation of Aβ42 fibrillar aggregates was confirmed by ThT fluorescence, CD measurements and electron microscopy. For oligomers, HFIP-treated Aβ42 dissolved in 10 mM PBS buffer and incubated at 4°C for 24 h[44].
as §2, §3

Serum stability assay = format: in vitro ADME; settings: 37°C; for half-life at 50 μM: n = 3; for serum half-life compared to P1: human blood serum, 50 μM; for remaining at 24 h, 50 μM: n = 3, read-out: peptide intact after 24 h in serum
Protocol: The impact of N-terminal modification (P2 and P3) and Sr (N-methylglycine) substitution (P4 and P5) in P1 were investigated for their proteolytic stability towards blood plasma proteases. The assay involved the incubation of peptides (50 μM) with blood serum at 37°C for a period of 24 h and assessing the amount of intact peptides at different time points (0, 3, 6, 12 and 24 h) using RP-HPLC. […] Remarkably, P4 and P5 were very stable towards blood plasma proteases in comparison to the other peptides (P1, P2 and P3). […] Proteolytic enzymes generally recognize the specific amide bond between the natural amino acids and cleave them. […] On the other hand, P4 and P5 with an unnatural amino acid (Sr: N-methylglycine) in alternate positions were not recognized by the blood plasma proteases, resulting in their high blood plasma protease stability.
Figure 6 Serum stability of inhibitors. Inhibitors (50 μM) (P1-P5)were incubated in human blood serum (HBS) and were analyzed at different time points over a duration of 24 h to determine the percentage of intact inhibitor. […] Each experiment was repeated three times (n = 3). Error bars represent the standard deviation (SD) of the […] measurement.
Human blood serum (HBS) was used to determine serum stability of the inhibitors. The HBS was centrifuged to remove the lipid component, and the supernatant was incubated at 37°C. 50 Μm of each inhibitor (P1, P2, P3, P4 and P5) was incubated in HBS and then 40 μL triplicate aliquots were removed at 0, 1, 3, 6, 10, 16, and 24 h. Each serum sample was quenched with 40 μL of 6 M urea and incubated at 4°C for 10 min. Then, each serum sample was quenched with 40 μL of trichloroacetic acid (20%) and incubated for another 10 min at 4°C to precipitate the serum proteins. The samples were centrifuged for 10 min, and […] of the supernatant was analyzed on RP-HPLC using a linear gradient of solvent B (0.3 mL/min flow rate). The control samples containing equivalent amounts of inhibitors in PBS buffer were subjected to the same treatment procedure. The percentage recovery of inhibitors was detected by integration at 254 nm[45].

trypsin = test: Protease stability assay, trypsin; format: in vitro ADME; settings: 100 mM NH4HCO3 buffer pH 8, 50 μM, 37°C; for stability towards trypsin: 24 h, RP-HPLC; for remaining at 24 h, 50 μM: RP-HPLC at 254 nm, triplicates, read-out: peptidomimetic intact after 24 h with trypsin
Protocol: (§4) Enzymes trypsin and pepsin are well-known to cleave the C-terminal of lysine and amide bond involving aromatic amino acids, respectively. Peptides were incubated with both the enzymes at 37°C for 24 h, and the amount of the residual intact peptide was monitored in each case at different time points (0, 3, 6, 12 and 24 h) using RP-HPLC. […] Overall, the stability assays with blood plasma and proteolytic enzymes led to similar conclusions and confirmed the stability, order P5>P4≫P3≈P2>P1.
(§5) Preliminary stability assays were performed using the enzymes pepsin and trypsin. For all assays, peptides were incubated with the enzyme at 37°C for 24 h. All digestion assay data were analyzed by RP-HPLC. Trypsin and pepsin stocks were prepared in 100 mM ammonium bicarbonate (NH4HCO3) buffer (pH 8) and 100 mM formic acid buffer (pH 2), respectively. All the peptides/peptidomimetics (P1, P2, P3, P4 and P5) were incubated with trypsin and pepsin enzymes in 100 mM NH4HCO3 buffer (pH 8) and formic acid buffer (pH 2), respectively, at 37°C. The trypsin reactions were halted with 0.05% formic acid, and the pepsin reactions were halted with 100 mM NH4HCO3. Then the samples were analyzed by RP-HPLC using a linear gradient of solvent B (0.3 mL/min flow rate); similar data points were collected at various time points between 0 and 24 h (1 h, 3 h, 6 h, 12 h and 24 h) during incubation and analyzed in triplicates. The percentages of recovered peptide/peptidomimetics were detected by integration at 254 nm[46].
(§6) Figure S6. Stability towards protease enzymes pepsin and trypsin. P1, P2, P3, P4 and P5 ([…]) were incubated in with enzymes pepsin a and trypsin b in 100 mM formic acid buffer (pH 2) and 100 mM NH4HCO3 buffer (pH 8) respectively. Percentage of intact peptide in each case was monitored at different time points for a duration of 24 h. P1, P2 and P3 degraded with time, […]
(§7) (1 picture or pasted object on this page, not shown here)

pepsin = test: Protease stability assay, pepsin; format: in vitro ADME; settings: 100 mM formic acid buffer pH 2, 50 μM, 37°C; for stability towards pepsin: 24 h, RP-HPLC; for remaining at 24 h, 50 μM: RP-HPLC at 254 nm, triplicates, read-out: peptidomimetic intact after 24 h with pepsin
Protocol: as §4, §5, §6, §7

Aβ42 [3] = target: T1, Aβ42; test: CD measurement, inhibition assay (β-sheet band at 218 nm); format: biochemical; settings: read-out: reduction in CD intensity at 218 nm (β-sheet content), inhibition assay
Text: (§8) To further validate our results, we performed CD studies. Aβ42 aggregates are predominantly made of β-sheet assembly, which can be assessed by CD measurements. […] In this assay, we monitored the intensity of negative CD band centered at 218 nm, characteristic of a β-sheet structure and a decrease in its intensity was correlated with a reduction in the toxic Aβ42 aggregates (supplementary Fig. S2). In these CD measurements, samples similar to ThT fluorescence assays were used to allow for direct comparison between the two experiments. In the case of inhibition assay, Aβ42 monomers were incubated with inhibitor candidates for 4 days at 37°C and then CD measurements were performed to evaluate the inhibition efficiency. […] In the reversal assay, Aβ42 aggregates were incubated with the inhibitor candidates for six days at 37°C and then, CD measurements were performed. CD data was in excellent agreement with the dissolution efficiency obtained in reversal assay experiments monitored by the ThT assay (Fig. 2). […] Overall, inhibition and dissolution efficiencies obtained in the ThT fluorescence assay and CD measurements were in good agreement.
(§9) The circular dichroic (CD) spectra were recorded using a Jasco J-815 spectrometer under nitrogen atmosphere. Peptides were dissolved in 10 mM PBS buffer at pH 7.4 at concentrations of 20 µM. A 10 mm path length was used for the measurements. Four to five scans were acquired from 200 to 300 nm.
as §3

Aβ42 aggregates = target: T3, Aβ42 aggregates (Homo sapiens, UniProt P05067); test: CD measurement, reversal assay (β-sheet band at 218 nm); format: biochemical; settings: Aβ42 aggregates 20 μM, inhibitor 40 μM, six days at 37°C
T3 construct: Aβ42 peptide (0.25 mg) (Calbiochem, Merck) was dissolved in hexafluoro-2-propanol; purchased Calbiochem, Merck
Text: as §8, §9, §3

[4] = Aβ42 20 μM, Aβ42:inhibitor 1:2 (40 μM), inhibitor added at 0 h, four days at 37°C, 10 mM PBS pH 7.4, n = 3, read-out: inhibition efficiency (reduction in the fluorescence intensity of ThT)
[5] = human blood serum (centrifuged to remove lipid), 24 h, RP-HPLC at 254 nm
[6] = Aβ42 20 μM, inhibitor 40 μM, 4 days at 37°C, vs untreated Aβ42

T3 sequence (P05067 672-713 limits assumed): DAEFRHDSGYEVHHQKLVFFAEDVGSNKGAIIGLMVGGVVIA
T1 sequence (P05067 672-713 limits assumed): as above
T2 sequence (P05067 672-713 limits assumed): as above

| Structure (SMILES) | inhibition at 40 µM (Aβ42 [1]; [4]) [%] | dissolution efficiency, fibril reversal assay (ThT) [2] [%] | half-life at 50 μM (Serum stability assay; [5]) [h] | metabolised at 24 h, 50 μM (Serum stability assay; human blood serum (centrifuged to remove lipid), 24 h, RP-HPLC at 254 nm, n = 3, read-out: peptide degraded at 24 h in serum) [%] | stability towards trypsin (trypsin) | stability towards pepsin (pepsin) | growth phase of Aβ42 fibrillization, time-dependent ThT assay (Aβ42 [1]; Aβ42 20 μM) [%] | dissolution efficiency, time-dependent reversal ThT assay [2] [%] | inhibition at 40 µM (Aβ42 [3]; [6]) [%] | dissolution efficiency by CD, reversal assay (Aβ42 aggregates) [%] | serum half-life compared to P1 (Serum stability assay) [times] | inhibition at 40 µM (Aβ42 [1]; pH 7.4, read-out: inhibition efficiency (reduction in the fluorescence intensity of ThT)) [%] | inhibition at 40 µM (Aβ42 [3]) [%] | inhibition efficiency, time-dependent ThT assay (Aβ42 [1]; Aβ42 20 μM) [%] | remaining at 24 h, 50 μM (Serum stability assay; [5]) [%] | remaining at 24 h, 50 μM (trypsin) [%] | remaining at 24 h, 50 μM (pepsin) [%] |
| --- | --- | --- | --- | --- | --- | --- | --- | --- | --- | --- | --- | --- | --- | --- | --- | --- | --- |
| CC(C)C[C@H](NC(=O)[C@@H](N)CCCCN)C(=O)N[C@H](C(=O)N[C@@H](Cc1ccccc1)C(=O)N[C@@H](Cc1ccccc1)C(N)=O)C(C)C [P1, reference compound] | 20 | 20 | ~3 | 80 | less stable | less stable |  |  |  |  |  |  |  |  |  |  |  |
| Cc1cn(CC(=O)N[C@@H](CCCCN)C(=O)N[C@@H](CC(C)C)C(=O)N[C@H](C(=O)N[C@@H](Cc2ccccc2)C(=O)N[C@@H](Cc2ccccc2)C(N)=O)C(C)C)c(=O)[nH]c1=O [P2] | 55 | 45 | ~10 |  | less stable | less stable | < 60 | 35 | > 50 | 40 | 3 |  |  |  |  |  |  |
| CC(C)C[C@H](NC(=O)[C@H](CCCCN)NC(=O)CC1C(=O)NC(=O)NC1=O)C(=O)N[C@H](C(=O)N[C@@H](Cc1ccccc1)C(=O)N[C@@H](Cc1ccccc1)C(N)=O)C(C)C [P3] |  | 34 | ~10 |  | less stable | less stable | < 60 | 25 |  | 25 | 3 | 40 | ~30 |  |  |  |  |
| Cc1cn(CC(=O)N(C)CC(=O)N[C@@H](CC(C)C)C(=O)N(C)CC(=O)N[C@@H](Cc2ccccc2)C(=O)N(C)CC(=O)N[C@@H](C)C(N)=O)c(=O)[nH]c1=O [P4] ({Acetyl(thymin-1-yl)}-[Sar]L[Sar]F[Sar]A-NH2) | ≤ 95 | 80 |  |  |  |  |  | 68 | > 80 | > 75 |  |  |  | > 90 | > 90 | > 90 | > 90 |
| Cc1cn(CC(=O)N[C@@H](CCCCN)C(=O)N(C)CC(=O)N[C@H](C(=O)N(C)CC(=O)N[C@@H](Cc2ccccc2)C(=O)N(C)CC(N)=O)C(C)C)c(=O)[nH]c1=O [P5] ({Acetyl(thymin-1-yl)}-K[Sar]V[Sar]F[Sar]-NH2) | ≤ 95 | 80 |  |  |  |  |  | 75 | > 80 | > 75 |  |  |  | > 90 | > 90 | > 90 | > 90 |

Reference: article PMC4311240, “Rationally Designed Peptidomimetic Modulators of Aβ Toxicity in Alzheimer's Disease” (Scientific Reports, 2015)
